Columns and labels:
[1] = test system: binding between IgE in serum sample U and crab antigens; test: IgE inhibition experiment, conventional protein array spotted with crab antigens; set-up: species or system human
Protocol: (§1) The sample serum is diluted with diluent buffer containing adequate amount of BSA, no-fat milk, and Tween-20. The peptide array of the present embodiment is incubated with each serum sample respectively at 37° C. for 1 hour. A wash buffer containing Tween-20 is added to the reaction area of the peptide array to wash out extra serum. Anti-human IgE antibody labeled with Cy3 is added to the reaction area of the peptide array. The anti-human IgE with Cy3 binds on antibodies in the sample serum that binds to the peptide probes in the reaction area. The peptide array is then incubated
(§2) at 37° C. for 1 hour in darkness. The diluent, wash buffer, and anti-human IgE with Cy3 is provided by EBS Immunoflourescence Specific IgE Assay. A laser scanner with FD532 nm detector is utilized to scan the peptide array after incubation. The intensities of FD532 nm of each peptide probe on the peptide array can be obtained. For protein arrays the positive values are highlighted, while for peptide arrays the numbers (No.) of the peptide probes showing positive values are listed. […] For the peptide array of the present embodiment, although all of the peptide probes are derived from antigens of house dust mites, only a number of probes are bound to the serum samples and generate positive results.
(§3) Generally, the serum sample U is incubated with different concentration Der-p10-17 peptide (#60) for 30 minutes, and then serum sample U is transferred on conventional protein arrays spotted with crab, shrimp, dust mite and house dust mite antigens. In each of these arrays, different reaction blocks represent serum sample U incubated with different concentrations of Der-p10-17 (#60), where X1 is serum sample U incubated with the original concentration of Der-p10-17 (#60). X2 is serum sample U incubated with 2-fold dilution of the original concentration, X4 is serum sample U incubated with a 4-fold dilution and X8 is serum sample U incubated with an 8-fold dilution. The experiment protocol in Table 5A-5D and FIGS. 12A-12D may refer to the IgE immunofluorescence assay used in Table 4. The F532 nm intensity value of crabs, shrimps, dust mites, and house mites are shown respectively. Various concentrations of Der-p10-17 peptide (#60) are tested to evaluate the dependence of inhibition on the inhibitor peptide concentration. The results of the IgE inhibition experiments are presented in FIGS. 12A-12D and Tables 5A-5D.

[2] = test system: binding between IgE in serum sample U and shrimp antigens; test: IgE inhibition experiment, conventional protein array spotted with shrimp antigens; set-up: species or system human
Protocol: as §1, §2, §3

[3] = test system: binding between IgE in serum sample U and dust mite antigens; test: IgE inhibition experiment, conventional protein array spotted with dust mite antigens; set-up: species or system human
Protocol: (§4) The sample serum is diluted with diluent buffer containing adequate amount of BSA, no-fat milk, and Tween-20. The peptide array of the present embodiment is incubated with each serum sample respectively at 37° C. for 1 hour. A wash buffer containing Tween-20 is added to the reaction area of the peptide array to wash out extra serum. Anti-human IgE antibody labeled with Cy3 is added to the reaction area of the peptide array. The anti-human IgE with Cy3 binds on antibodies in the sample serum that binds to the peptide probes in the reaction area. The peptide array is then incubated at 37° C. for 1 hour in darkness. The diluent, wash buffer, and anti-human IgE with Cy3 is provided by EBS Immunoflourescence Specific IgE Assay. A laser scanner with FD532 nm detector is utilized to scan the peptide array after incubation. The intensities of FD532 nm of each peptide probe on the peptide array can be obtained. For protein arrays the positive values are highlighted, while for peptide arrays the numbers (No.) of the peptide probes showing positive values are listed. […] For the peptide array of the present embodiment, although all of the peptide probes are derived from antigens of house dust mites, only a number of probes are bound to the serum samples and generate positive results. Generally, the serum sample U is incubated with different concentration Der-p10-17 peptide (#60) for 30 minutes, and then serum sample U is transferred on conventional protein arrays spotted with crab, shrimp, dust mite and house dust mite antigens. In each of these arrays, different reaction blocks represent serum sample U incubated with different concentrations of Der-p10-17 (#60), where X1 is serum sample U incubated with the original concentration of Der-p10-17 (#60). X2 is serum sample U incubated with 2-fold dilution of the original concentration, X4 is serum sample U incubated with a 4-fold dilution and X8 is serum sample U incubated with an 8-fold dilution. The experiment protocol in Table 5A-5D and FIGS. 12A-12D may refer to the IgE immunofluorescence assay used in Table 4. The […] nm intensity value of crabs, shrimps, dust mites, and house mites are shown respectively. Various concentrations of Der-p10-17 peptide (#60) are tested to evaluate the dependence of inhibition on the inhibitor peptide concentration. The results of the IgE inhibition experiments are presented in FIGS. 12A-12D and Tables 5A-5D.

[4] = test system: binding between IgE in serum sample U and house dust mite antigens; test: IgE inhibition experiment, conventional protein array spotted with house dust mite antigens; set-up: species or system human
Protocol: as §4

[5] = test system: specific IgE in serum samples; test: Serum samples analysis on peptide array (IgE immunofluorescence assay); assay type: binding, human
Description: A plurality of peptide probes are synthesized according to each of the above peptide fragments of Der p1, Der p2, and Der p10. Theses synthesized peptide probes are spotted on a solid surface to construct a peptide array. The peptide array includes at least one reaction area, and each reaction area includes at least one reaction block. […] The peptide array of FIG. 11 includes at least one reaction area, and each reaction area includes 4 reaction blocks, namely R1, R2, R3, and R4.
Serum samples are used and labeled to evaluate the peptide array of the present embodiment. The labeled serum samples include 23 positive serum samples obtained from patients showing allergy symptoms, one negative serum sample, and one blank. Conventional protein arrays are also used in the test, probes for which being allergens extracted from allergenic substances derived from natural origins, such as crabs, shrimps, dust mites (Dermatophagoides farinae), house dust mites and storage mites (Blomia tropicalis). Group 10 allergens (tropomyosins) have been assumed to be a major cause of cross-reactivity between house dust mites and other invertebrates.
The sample serum is diluted with diluent buffer containing adequate amount of BSA, no-fat milk, and Tween-20. The peptide array of the present embodiment is incubated with each serum sample respectively at 37° C. for 1 hour. […]

[6] = Block 2-X8, serum sample U pre-incubated 30 minutes with 8-fold dilution of peptide
[7] = Block 3-X4, 4-fold dilution of peptide
[8] = Block 4-X2, 2-fold dilution of peptide
[9] = Block 5-X1, original concentration of peptide

ELDQTFAELTGY [Der-p10-17]
F532 nm intensity value, crabs ([1]; Block 2-X8): 14893 | F532 nm intensity value, crabs [1, 6]: 15148 | F532 nm intensity value, crabs ([1]; Block 3-X4, serum sample U pre-incubated with 4-fold dilution of peptide): 11803 | F532 nm intensity value, crabs ([1]; Block 4-X2, serum sample U pre-incubated with 2-fold dilution of peptide): 10695 | F532 nm intensity value, crabs ([1]; Block 5-X1, serum sample U pre-incubated with original concentration of peptide): 13067 | inhibition of IgE cross-linking / decrease of intensity values, crab ([1]; serum sample U): can inhibit the IgE cross-linking between shrimp and crab | F532 nm intensity value, shrimps ([2]; Block 2-X8): 16678 | F532 nm intensity value, shrimps [2, 6]: 17902 | F532 nm intensity value, shrimps [2, 7]: 14759 | F532 nm intensity value, shrimps [2, 8]: 14481 | F532 nm intensity value, shrimps [2, 9]: 15396 | inhibition of IgE cross-linking / decrease of intensity values, shrimp ([2]; serum sample U): can inhibit the IgE cross-linking between shrimp and crab | F532 nm intensity value, dust mites ([3]; Block 2-X8): 5767 | F532 nm intensity value, dust mites [3, 6]: 5979 | F532 nm intensity value, dust mites [3, 7]: 4767 | F532 nm intensity value, dust mites [3, 8]: 4428 | F532 nm intensity value, dust mites [3, 9]: 5475 | F532 nm intensity value, house dust mites [4, 6]: 3288 | F532 nm intensity value, house dust mites [4, 7]: 3247 | F532 nm intensity value, house dust mites [4, 8]: 3659 | F532 nm intensity value, house dust mites [4, 9]: 4288 | inhibition of binding between IgE and antigens extracted from natural house dust mites ([4]; serum sample U): can inhibit the binding between IgE and antigens extracted from natural house dust mites | binding of peptide probe to IgE in serum samples ([5]; peptide array): can bind to IgE in serum samples | reactivity of serum sample U on the peptide array ([5]; serum sample U, Table 4): reactive
